Experimental data as given in PMC7125588 (Tetrahedron, 2011).

Columns and labels:
influenza B virus = assay: microbe, parasite or virus in culture; assay type: cell-based; conditions: MDCK, read-out: Anti-influenza EC50 B
influenza A (H3N2) = assay: microbe, parasite or virus in culture; assay type: cell-based; conditions: H3N2, MDCK, read-out: Anti-influenza EC50 A (H3N2)
in vitro = conditions: dog
MDCK cell cultures = conditions: for Cytotoxicity MCC: dog
influenza A (H1N1) = assay: microbe, parasite or virus in culture; assay type: cell-based; conditions: H1N1, MDCK, read-out: Anti-influenza EC50 A (H1N1)
influenza virus A = assay: Anti-influenza virus A activity as summarised in the text; assay type: cell-based; conditions: conclusions

Structure (SMILES)	EC50 (influenza B virus) [µM]	EC50 (influenza A (H3N2)) [µM]	CC50 (in vitro) [µM]	Toxicity (in words) (MDCK cell cultures; Table 2)	Cytotoxicity MCC (MDCK cell cultures) [µM]	EC50 (influenza A (H1N1)) [µM]	Anti-influenza virus A activity (in words) (influenza virus A)
Nc1nc(P(=O)(O)O)nc(N)c1Cl [7a, 4,6-Diamino-5-chloropyrimidin-2-ylphosphonic acid]	72 ± 68	28 ± 10	> 100	no toxicity	>100	50 ± 14	middle micromolar range
NC12CC3CC(CC(C3)C1)C2 [Amantadine]	> 200	> 200	> 100	–	>100	36.8 ± 2.6	–
CCOC(=O)C1=C[C@@H](OC(CC)CC)[C@H](NC(C)=O)[C@@H](N)C1 [Oseltamivir]	26 ± 27.7	[…]	> 100	–	>100	[…]	–
NC(=O)c1ncn([C@@H]2O[C@H](CO)[C@@H](O)[C@H]2O)n1 [Ribavirin]	5.6 ± 2.8	8.7 ± 3.8	> 100	–	>100	9.2 ± 0.8	–
CC(N)C12CC3CC(CC(C3)C1)C2 (stereo not drawn) [Rimantadine]	> 500	> 500	> 100	–	>100	13.2 ± 0.2	–
